The values that follow come from patent US8906930B2, “Quinazoline derivatives” (Merck Patent GmbH, priority 2009, dated 2014).

The test concerns the target T1, Recombinant human HSP90α (Homo sapiens, UniProt P07900).
T1 construct: host or cells: E. coli
Put plainly: HSP90 radioligand filter binding test ([3H]17AAG competition). The following applies: radioligand [3H]17AAG 0.08 μM; HSP90 1.5 μg/assay; 22° C., 30 min; read-out: HSP90 inhibition IC50. The text has this: The binding of geldanamycin or 17-allylamino-17-demethoxygeldanamycin (17AAG) to HSP90 and competitive inhibition thereof can be utilised in order to determine the inhibitory activity of the compounds according to the invention (Carreras et al. 2003, Chiosis et al. 2002).
In the specific case, a radioligand filter binding test is used. The radioligand used here is tritium-labelled 17-allylaminogeldanamycin, [3H]17AAG. This filter binding test allows a targeted search for inhibitors which interfere with the ATP binding site.
Recombinant human HSP90α (E. coli expressed, 95% purity);
[3H]17AAG (17-allylaminogeldanamycin, [allylamino-2,3-^3H. Specific activity: 1.11×10^12 Bq/mmol (Moravek, MT-1717);
HEPES filter buffer (50 mM HEPES, pH 7.0, 5 mM MgCl2, BSA 0.01%) Multiscreen FB (1 μm) filter plate (Millipore, MAFBNOB 50).
The 96-well microtitre filter plates are firstly irrigated and coated with 0.1% of polyethylenimine.
The test is carried out under the following conditions:
Reaction temperature 22° C.
Reaction time: 30 min., shaking at 800 rpm
50 mM HEPES HCl, pH 7.0, 5 mM MgCl2, 0.01% (w/v) of BSA
At the end of the reaction, the supernatant in the filter plate is removed by suction with the aid of a vacuum manifold (Multiscreen Separation System, Millipore), and the filter is washed twice.
The filter plates are then measured in a beta counter (Microbeta, Wallac) with scintillator (Microscint 20, Packard).
“% of control” is determined from the “counts per minutes” values, and the IC-50 value of a compound is calculated therefrom.
As a reminder, the IC50 is the midpoint of a concentration-inhibition curve. In the case of `CCNC(=O)C1(c2ccc3nc(N)nc(C(=O)N4Cc5ccccc5C4)c3c2)CCOCC1` [Compound A54, 1-[2-Amino-4-(isoindoline-2-carbonyl)quinazolin-6-yl]-N-ethyltetrahydropyran-4-carboxamide], the IC50 was in the range of 1 to 10 µM.

On to `CCCC(C)(C(=O)NCC)c1ccc2nc(N)nc(C(=O)N3Cc4ccccc4C3)c2c1` (stereo not drawn) [Compound A55, 2-[2-Amino-4-(isoindoline-2-carbonyl)quinazolin-6-yl]-N-ethyl-2-methylpentanamide], for which the IC50 fell in the range of 0.01 to 1 µM.

For `CCOC(=O)C1(c2ccc3nc(N)nc(C(=O)N4Cc5ccccc5C4)c3c2)CC1` [Compound A56, Ethyl 1-[2-amino-4-(isoindoline-2-carbonyl)quinazolin-6-yl]cyclopropanecarboxylate], the IC50 is 0.01 to 1 µM.

Consider `Nc1nc(C(=O)N2Cc3ccccc3C2)c2cc(C3(C(=O)O)CC3)ccc2n1` [Compound A57, 1-[2-Amino-4-(isoindoline-2-carbonyl)quinazolin-6-yl]cyclopropanecarboxylic acid], for which the IC50 is 0.01 to 1 µM.

Take `C=C(CC(C(=O)O)c1ccc2nc(N)nc(C(=O)N3Cc4ccccc4C3)c2c1)C(N)=O` (stereo not drawn) [Compound A74]: the IC50 fell in the range of 1 to 10 µM.

`CN1CCN(Cc2ccc3nc(N)nc(C(=O)N4Cc5ccccc5C4)c3c2)CC1` [Compound A76, [2-amino-6-[(4-methylpiperazin-1-yl)methyl]quinazolin-4-yl]-isoindolin-2-ylmethanone]: the IC50 lay in the range of 1 to 10 µM.
